Experiments:
Assay type in all cases: cell-based
HEPG2 Cells = test: NAD Elevation Assay (NAD Cellular Assay), HEPG2 cells
Experimental: (§1) Compounds were tested in an NAD Cellular Assay according to the following protocol. Jurkat cells (50,000 per in 100 microliters of RPMI media) were added to wells of a 96 well, conical bottomed plate. The cells were allowed to recover for 3 h in culture. A 16 microliter aliquot of a 100 mM compound stock solution was diluted with 784 microliters of medium and 10% FBS to give 800 microliters of a 2 mM compound treatment solution. The compound treatment solution was added to the cells for a final concentration of 1 mM compound (n=6 wells for each compound.) As a parallel control, nicotinamide mononucleotide (NMN) was added to cells at a final concentration of 2 mM (n=6). The plates were incubated for 24 hours, then spun at 1000 rpm for 10 min. The medium was removed, then the cells were washed with fresh PBS and spun again. The PBS medium was removed, then the cells were washed one more time with PBS and spun. The liquid was removed from each well via pipette, avoiding touching the cell pellet. The cells were lysed with 75 microliters of 0.5% DTAB. 25 microliters of the lysate was added to each of two flat bottomed plates. One plate was used for a BCA protein assay (clear), and the other plate was used for the NAD assay (clear bottom, white walled). The NAD concentration in each well was determined using a commercially available assay according to the kit instructions (e.g. Promega NAD/NADH-Glo™ Assay.) The Pierce BCA protein assay was run according to the kit instructions (e.g. ThermoScientific Catalog number 23225). NAD levels were normalized to total protein and reported as a multiple of the NAD level in untreated cells.
(§2) Assays with other cell types were run similarly, using the appropriate compound and NMN dilutions. Cell counts were adjusted as necessary to provide a signal within the reading range of the protein and NAD assay kits.

NDF Cells = test: NAD Elevation Assay (NAD Cellular Assay), NDF cells; details: 0.25 mM compound
Experimental: as §1, §2

Jurkat cells = test: NAD Elevation Assay (NAD Cellular Assay), Jurkat cells; details: 1 mM compound, 24 hours
Experimental: as §1, with “25 microliters of the lysate was added to each of two flat bottomed plates. One plate was used for a BCA protein assay (clear), and the other plate was used for the NAD assay (clear bottom, white walled).” left out, “NAD levels were normalized to total protein and reported as a multiple of the NAD level in untreated cells.” left out

AML12 Cells = test: NAD Elevation Assay (NAD Cellular Assay), AML12 cells; details: at 0.4-2 mM compound
Experimental: as §1, with “The PBS medium was removed, then the cells were washed one more time with PBS and spun. The liquid was removed from each well via pipette, avoiding touching the cell pellet. The cells were lysed with 75 microliters of 0.5% DTAB. 25 microliters of the lysate was added to each of two flat bottomed plates. One plate was used for a BCA protein assay (clear), and the other plate was used for the NAD assay (clear bottom, white walled).” left out, “NAD levels were normalized to total protein and reported as a multiple of the NAD level in untreated cells.” left out
as §2

Compound: Cn1cnc2c1c(=O)n(CCOC(=O)c1ccc[n+]([C@@H]3O[C@H](COP(=O)([O-])O)[C@@H](O)[C@H]3O)c1)c(=O)n2C [Compound 4, ((2R,3S,4R,5R)-5-(3-((2-(3,7-dimethyl-2,6-dioxo-2,3,6,7-tetrahydro-1H-purin-1-yl)ethoxy)carbonyl)pyridin-1-ium-1-yl)-3,4-dihydroxytetrahydrofuran-2-yl)methyl hydrogen phosphate]
- NAD Elevation Assay (NAD level normalized to total protein, multiple of the NAD level in untreated cells) (HEPG2 Cells; 0.1 mM compound): 2.1x @0.1

Compound: Cn1cnc2c1c(=O)n(CCCOC(=O)c1ccc[n+]([C@@H]3O[C@H](COP(=O)([O-])O)[C@@H](O)[C@H]3O)c1)c(=O)n2C [Compound 5P, ((2R,3S,4R,5R)-5-(3-((3-(3,7-dimethyl-2,6-dioxo-2,3,6,7-tetrahydro-1H-purin-1-yl)propoxy)carbonyl)pyridin-1-ium-1-yl)-3,4-dihydroxytetrahydrofuran-2-yl)methyl hydrogen phosphate]
- NAD Elevation Assay (NAD level normalized to total protein, multiple of the NAD level in untreated cells) (NDF Cells): 2.2x @0.25

Compound: Cn1c(=O)c2c(ncn2CC(=O)OCCCOC(=O)c2ccc[n+]([C@@H]3O[C@H](COP(=O)([O-])O)[C@@H](O)[C@H]3O)c2)n(C)c1=O [Compound 6P, ((2R,3S,4R,5R)-5-(3-((3-(2-(1,3-dimethyl-2,6-dioxo-1,2,3,6-tetrahydro-7H-purin-7-yl)acetoxy)propoxy)carbonyl)pyridin-1-ium-1-yl)-3,4-dihydroxytetrahydrofuran-2-yl)methyl hydrogen phosphate]
- NAD Elevation Assay (NAD level normalized to total protein, multiple of the NAD level in untreated cells) (NDF Cells): 2.0x @0.25

Compound: CCCn1cnc2c1c(=O)n(CCOC(=O)c1ccc[n+]([C@@H]3O[C@H](COP(=O)([O-])O)[C@@H](O)[C@H]3O)c1)c(=O)n2C [Compound 7P, ((2R,3S,4R,5R)-3,4-dihydroxy-5-(3-((2-(3-methyl-2,6-dioxo-7-propyl-2,3,6,7-tetrahydro-1H-purin-1-yl)ethoxy)carbonyl)pyridin-1-ium-1-yl)tetrahydrofuran-2-yl)methyl hydrogen phosphate]
- NAD Elevation Assay (NAD level normalized to total protein, multiple of the NAD level in untreated cells) (NDF Cells): 1.9x @0.25

Compound: Cn1c(=O)c2c(ncn2CCOC(=O)c2ccc[n+]([C@@H]3O[C@H](CO)[C@@H](O)[C@H]3O)c2)n(C)c1=O.O=S(=O)([O-])C(F)(F)F [Compound 2, 1-((2R,3R,4S,5R)-3,4-dihydroxy-5-(hydroxymethyl)tetrahydrofuran-2-yl)-3-((2-(1,3-dimethyl-2,6-dioxo-1,2,3,6-tetrahydro-7H-purin-7-yl)ethoxy)carbonyl)pyridin-1-ium trifluoromethanesulfonate]
- NAD Elevation Assay (NAD level normalized to total protein, multiple of the NAD level in untreated cells) (Jurkat cells): 2.9x @1

Compound: Cn1cnc2c1c(=O)n(CC(=O)OCCCOC(=O)c1ccc[n+]([C@@H]3O[C@H](CO)[C@@H](O)[C@H]3O)c1)c(=O)n2C.O=S(=O)([O-])C(F)(F)F [Compound 1, 1-((2R,3R,4S,5R)-3,4-dihydroxy-5-(hydroxymethyl)tetrahydrofuran-2-yl)-3-((3-(2-(3,7-dimethyl-2,6-dioxo-2,3,6,7-tetrahydro-1H-purin-1-yl)acetoxy)propoxy)carbonyl)pyridin-1-ium trifluoromethanesulfonate]
- NAD Elevation Assay (AML12 Cells): Active at 0.4-2

Compound: Cn1cnc2c1c(=O)n(CCNC(=O)c1ccc[n+]([C@@H]3O[C@H](COP(=O)([O-])O)[C@@H](O)[C@H]3O)c1)c(=O)n2C [Compound 9P, ((2R,3S,4R,5R)-5-(3-((2-(3,7-dimethyl-2,6-dioxo-2,3,6,7-tetrahydro-1H-purin-1-yl)ethyl)carbamoyl)pyridin-1-ium-1-yl)-3,4-dihydroxytetrahydrofuran-2-yl)methyl hydrogen phosphate]
- NAD Elevation Assay (NAD level normalized to total protein, multiple of the NAD level in untreated cells) (HEPG2 Cells; 0.25 mM compound): 1.9x @0.25

Compound: Cn1c(=O)c2c(ncn2CCOC(=O)c2ccc[n+]([C@@H]3O[C@H](COP(=O)([O-])O)[C@@H](O)[C@H]3O)c2)n(C)c1=O [Compound 2P, ((2R,3S,4R,5R)-5-(3-((2-(1,3-dimethyl-2,6-dioxo-1,2,3,6-tetrahydro-7H-purin-7-yl)ethoxy)carbonyl)pyridin-1-ium-1-yl)-3,4-dihydroxytetrahydrofuran-2-yl)methyl hydrogen phosphate]
- NAD Elevation Assay (NAD level normalized to total protein, multiple of the NAD level in untreated cells) (HEPG2 Cells; 2 mM compound): 1.6x @2

Compound: CCn1c(=O)c2c(ncn2CCOC(=O)c2ccc[n+]([C@@H]3O[C@H](COP(=O)([O-])O)[C@@H](O)[C@H]3O)c2)n(CC)c1=O [Compound 11P, ((2R,3S,4R,5R)-5-(3-((2-(1,3-diethyl-2,6-dioxo-1,2,3,6-tetrahydro-7H-purin-7-yl)ethoxy)carbonyl)pyridin-1-ium-1-yl)-3,4-dihydroxytetrahydrofuran-2-yl)methyl hydrogen phosphate]
- NAD Elevation Assay (NAD level normalized to total protein, multiple of the NAD level in untreated cells) (HEPG2 Cells; 2 mM compound): 1.3x @2

Compound: Cn1cnc2c1c(=O)n(CCOC(=O)c1ccc[n+]([C@@H]3O[C@H](CO)[C@@H](O)[C@H]3O)c1)c(=O)n2C.O=S(=O)([O-])C(F)(F)F [Compound 3, 1-((2R,3R,4S,5R)-3,4-dihydroxy-5-(hydroxymethyl)tetrahydrofuran-2-yl)-3-((2-(3,7-dimethyl-2,6-dioxo-2,3,6,7-tetrahydro-1H-purin-1-yl)ethoxy)carbonyl)pyridin-1-ium trifluoromethanesulfonate]
- NAD Elevation Assay (AML12 Cells): Active at 0.4-2

From US20250066413A1, “COMPOSITIONS FOR TREATMENT OF INFLAMMATION” (Metro International Biotech, LLC, priority 2022, published 2025)
